Structures can show the parent of a compound that is named as a salt.
Legend:
[1] = biological target: T1, VEGFR2 (Homo sapiens, UniProt P35968); assay: VEGFR2 cell-based assay (ELISA, phosphor-/total VEGFR2 in transfected CHO cells); settings: compound at 100 nM; CHO cells transfected with full length VEGFR2; FBS stimulation; read-out: % VEGFR2 kinase activity remains
T1 construct: expressed in transfected cells; host or cells: CHO cells
Source text: A standard cell-based assay for VEGFR2 kinase activity can be used to test or screen the compounds of this invention and to identify VEGFR2 antagonists. In this example, ELISA kits (R&D Systems, Inc., Minneapolis, Minn. 55413, USA) were used.
(§1) The activity of VEGFR2 in cells depended on its autophosphorylation level by various factors including growth factors. In order to induce the cell to produce VEGFR2, full length of VEGFR2 sequence was cloned into PC-DNA3.1 vector, the plasmid was then transfected into CHO cells. After 48 hours, the expression of VEGFR2 in transfected CHO cells was confirmed by regular western blotting.
A compound to be tested was first dissolved in DMSO to a concentration of 10 mM and stored at −20° C. One day before the test, CHO cells transfected with full length VEGFR2 plasmid were grown in Dulbecco's Modified Eagle Medium (DMEM) without the presence of serum. On the day of the test, the compounds with various concentrations in DMSO (from 0.5 nM to 500 nM) were added into DMEM. Two hours later, 20% of FBS (Fetal Bovine Serum) was added into the medium to stimulate the production of phosphor-VEGFR2. Cell lysate from approximately 5×10^5 transfected CHO cells were reacted with anti-phosphor VEGFR2 or anti-total VEGFR2 antibody in 96-well plates, in the presence of detection antibody. The phosphor-VEGFR2 or total VEGFR2 were detected with Streptavidin-HRP(R&D Systems), followed by chemiluminescent detection. The level of VEGFR2 kinase activity was quantified as the ratio between the amount of phosphor- and that of total VEGFR2 proteins.

[2] = test system: Rat liver microsome; assay: Liver microsomal stability assay, rat; type: in vitro ADME; set-up: key: A: the percentage of a compound remains is greater than that of its deuterium non-enriched counterpart; B: a result otherwise; settings: 40 μM, 37° C., 30 min, 1 mg/ml microsome proteins; class relative to deuterium non-enriched counterpart
Description: A standard liver microsomal stability assay can be used to test or screen the compounds of this invention and to identify compounds with enhanced metabolic stability due to the enrichment of deuterium in the compounds. Liver microsome proteins prepared from different species such as mouse and rat were obtained from a commercial source (Research Institute for Liver Diseases, Shanghai, China). The assay was conducted in 1.5% potassium hydrogenphosphate (K2HPO4) in the presence of liver microsome proteins at 1 mg/ml and supplemented with an […] (3.3 mM NADPH, 3.3 mM glucose-6-phosphate, 6 units/ml G6PDase, and 3.3 mM magnesium chloride). Test compound was added into the assay mixture to a final concentration of 40 μM and incubated at 37° C. for 0 or 30 minutes. The reaction was stopped by the addition of 20 μM Bifonazole/CAN. Samples were then centrifuged at 14000 rpm for 10 minutes to precipitate proteins. Supernatant were then transferred to microcentrifuge tubes and subject to reverse phase HPLC analysis to determine the concentration of test compound.
The percentage of compounds that remained in the assay reactions after a thirty-minute incubation at 37° C. is calculated as the ratio between the amount of compound remained after a thirty-minute and that after a zero-minute incubation.

[3] = biological target: T2, PDGFRβ (Homo sapiens, UniProt P09619); assay: PDGFRβ cell-based assay (ELISA, phosphor-/total PDGFRβ in transfected CHO cells); settings: compound at 100 nM; CHO cells transfected with full length PDGFRβ; FBS stimulation; read-out: % PDGFRβ kinase activity remains
T2 construct: expressed in transfected cells; host or cells: CHO cells
Source text: A standard cell-based assay for PDGFRβ kinase activity can be used to test or screen the compounds of this invention and to identify PDGFRβ antagonists. In this example, ELISA kits (R&D Systems, Inc., Minneapolis, Minn. 55413, USA) were used.
as §1, with “PDGFRβ” for “VEGFR2”, “PDGFRβ,” for “VEGFR2,”
A compound to be tested was first dissolved in DMSO to a concentration of 10 mM and stored at −20° C. One day before the screening, CHO cells transfected with full length PDGFRβ plasmid were grown in DMEM medium without the presence of serum. On the day of screening procedure, the compounds with various concentration in DMSO (from 0.5 nM to 500 nM) were added into DMEM medium, two hours later, 20% of FBS (Fetal Bovine Serum) was added into the medium to stimulate the production of phosphor-PDGFRβ. Cell lysate from approximately 5×10^5 transfected CHO cells were reacted with anti-phosphor PDGFRβ or anti-total PDGFRβ antibody in 96 well plates, in the presence of detection antibody. The phosphor-PDGFRβ or total PDGFRβ were detected with Streptavidin-HRP (R&D Systems), followed by chemiluminescent detection. The level of PDGFRβ kinase activity was quantified as the ratio between the amount of phosphor- and that of total PDGFRβ proteins.

T1 sequence (P35968 20-1356): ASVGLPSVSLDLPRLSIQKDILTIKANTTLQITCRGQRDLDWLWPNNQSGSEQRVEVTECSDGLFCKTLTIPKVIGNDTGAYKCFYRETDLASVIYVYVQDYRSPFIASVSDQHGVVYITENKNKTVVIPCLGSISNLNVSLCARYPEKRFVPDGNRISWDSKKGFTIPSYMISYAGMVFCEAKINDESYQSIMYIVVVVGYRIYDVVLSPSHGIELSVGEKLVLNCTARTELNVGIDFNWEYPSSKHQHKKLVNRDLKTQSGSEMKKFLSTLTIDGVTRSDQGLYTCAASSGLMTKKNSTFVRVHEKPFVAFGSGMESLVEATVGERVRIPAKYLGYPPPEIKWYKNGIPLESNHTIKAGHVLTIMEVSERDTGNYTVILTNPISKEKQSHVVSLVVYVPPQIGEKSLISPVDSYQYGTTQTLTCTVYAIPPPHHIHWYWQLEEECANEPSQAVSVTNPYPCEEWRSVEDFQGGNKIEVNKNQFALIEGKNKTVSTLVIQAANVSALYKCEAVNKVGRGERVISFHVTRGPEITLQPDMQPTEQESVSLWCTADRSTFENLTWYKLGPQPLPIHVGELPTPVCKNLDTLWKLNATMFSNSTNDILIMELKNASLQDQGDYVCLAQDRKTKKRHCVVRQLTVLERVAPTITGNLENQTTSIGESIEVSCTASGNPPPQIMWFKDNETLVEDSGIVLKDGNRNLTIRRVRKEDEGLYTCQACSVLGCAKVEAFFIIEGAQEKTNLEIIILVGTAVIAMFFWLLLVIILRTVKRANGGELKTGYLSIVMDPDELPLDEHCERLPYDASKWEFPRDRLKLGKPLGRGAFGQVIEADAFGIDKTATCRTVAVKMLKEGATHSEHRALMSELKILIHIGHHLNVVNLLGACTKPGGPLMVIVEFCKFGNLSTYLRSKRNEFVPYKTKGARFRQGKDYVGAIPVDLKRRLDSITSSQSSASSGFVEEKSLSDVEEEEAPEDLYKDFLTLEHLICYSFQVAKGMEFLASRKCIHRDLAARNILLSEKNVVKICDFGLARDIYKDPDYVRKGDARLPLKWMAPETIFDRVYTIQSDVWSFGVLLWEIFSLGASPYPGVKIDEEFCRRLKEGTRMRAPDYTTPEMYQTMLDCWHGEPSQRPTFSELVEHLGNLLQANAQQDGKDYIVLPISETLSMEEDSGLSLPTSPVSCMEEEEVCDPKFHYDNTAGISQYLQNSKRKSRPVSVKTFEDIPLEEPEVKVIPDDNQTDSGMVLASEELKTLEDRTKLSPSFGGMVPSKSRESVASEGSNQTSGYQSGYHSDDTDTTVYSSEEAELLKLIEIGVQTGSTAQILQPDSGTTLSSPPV
T2 sequence (P09619 33-1106): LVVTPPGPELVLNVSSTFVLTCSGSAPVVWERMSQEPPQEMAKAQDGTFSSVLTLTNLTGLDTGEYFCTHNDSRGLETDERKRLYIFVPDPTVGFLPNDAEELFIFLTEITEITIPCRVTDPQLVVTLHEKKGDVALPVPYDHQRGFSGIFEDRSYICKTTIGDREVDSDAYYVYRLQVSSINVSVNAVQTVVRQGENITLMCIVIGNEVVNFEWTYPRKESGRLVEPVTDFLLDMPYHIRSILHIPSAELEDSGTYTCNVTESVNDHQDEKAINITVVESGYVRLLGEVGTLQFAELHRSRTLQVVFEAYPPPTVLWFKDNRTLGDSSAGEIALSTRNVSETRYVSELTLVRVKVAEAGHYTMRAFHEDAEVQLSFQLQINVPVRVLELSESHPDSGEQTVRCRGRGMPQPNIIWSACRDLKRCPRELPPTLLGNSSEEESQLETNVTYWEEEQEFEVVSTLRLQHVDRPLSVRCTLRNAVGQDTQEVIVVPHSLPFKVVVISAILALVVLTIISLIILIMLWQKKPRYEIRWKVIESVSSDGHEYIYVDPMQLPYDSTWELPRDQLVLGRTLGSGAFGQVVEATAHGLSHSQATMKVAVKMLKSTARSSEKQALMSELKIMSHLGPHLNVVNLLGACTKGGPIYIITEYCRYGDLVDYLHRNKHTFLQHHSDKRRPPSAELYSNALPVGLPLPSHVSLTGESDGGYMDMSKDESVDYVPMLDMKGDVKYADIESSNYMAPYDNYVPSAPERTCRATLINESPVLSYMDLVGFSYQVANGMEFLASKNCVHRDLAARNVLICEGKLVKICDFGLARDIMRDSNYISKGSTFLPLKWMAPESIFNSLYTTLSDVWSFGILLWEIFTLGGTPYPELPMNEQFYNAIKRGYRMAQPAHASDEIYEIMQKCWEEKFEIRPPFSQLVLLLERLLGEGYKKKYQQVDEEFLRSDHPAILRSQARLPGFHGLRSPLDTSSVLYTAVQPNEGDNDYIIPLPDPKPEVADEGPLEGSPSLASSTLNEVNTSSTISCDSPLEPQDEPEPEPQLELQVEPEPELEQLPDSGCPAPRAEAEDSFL

Row | remaining activity at 0.1 µM [1] | % of compound remained at the 30th minutes, Rat liver microsome [2] | remaining activity at 0.1 µM [3] | Compound
1 | ≥ 70% | A | < 70% | [2H]C([2H])([2H])Oc1ccc(Cl)cc1NC(=O)Nc1cccc2c1ccn2Cc1ccnc(N)c1 [Example 6, 1-[1-[(2-amino-4-pyridyl)methyl]indol-4-yl]-3-[5-chloro-2-(trideuteriomethoxy)phenyl]urea]
2 | < 70% | A | < 70% | [2H]C(c1c[nH]c2ncccc12)N1CCc2c(NC(=O)Nc3cc(Cl)ccc3OC)cccc21 (stereo not drawn) [Example 17, 1-(5-Chloro-2-methoxyphenyl)-3-[1-[deuterio(1H-pyrrolo[2,3-b]pyridin-3-yl)methyl]indolin-4-yl]urea]
3 | < 70% | B | < 70% | [2H]C([2H])(c1ccnc2[nH]ccc12)N1CCc2c(NC(=O)Nc3cc(Cl)ccc3F)cccc21 [Example 11, 1-(5-Chloro-2-fluorophenyl)-3-[1-[dideuterio(1H-pyrrolo[2,3-b]pyridin-4-yl)methyl]indolin-4-yl]urea hydrochloride]
4 | < 70% | A | < 70% | Cl.[2H]C([2H])([2H])Oc1ccc(Cl)cc1NC(=O)Nc1cccc2c1CCN2C([2H])([2H])c1ccnc2[nH]ccc12 [Example 7, 1-[5-Chloro-2-(trideuteriomethoxy)phenyl]-3-[1-[dideuterio(1H-pyrrolo[2,3-b]pyridin-4-yl)methyl]indolin-4-yl]urea hydrochloride]
5 | < 70% | A | < 70% | [2H]C(c1c[nH]c2ncccc12)n1ccc2c(NC(=O)Nc3cc(Cl)ccc3F)cccc21 (stereo not drawn) [Example 20, 1-(5-chloro-2-fluorophenyl)-3-[1-[deuterio(1H-pyrrolo[2,3-b]pyridin-3-yl)methyl]indol-4-yl]urea]
6 | < 70% | A | ≥ 70% | [2H]C([2H])(c1ccnc2[nH]ccc12)n1ccc2c(NC(=O)Nc3cc(Cl)ccc3F)cccc21 [Example 12, 1-(5-chloro-2-fluorophenyl)-3-[1-[dideuterio(1H-pyrrolo[2,3-b]pyridin-4-yl)methyl]indol-4-yl]urea hydrochloride]
7 | < 70% | A | ≥ 70% | [2H]C(c1c[nH]c2ncccc12)N1CCc2c(NC(=O)Nc3cc(Cl)ccc3OC([2H])([2H])[2H])cccc21 (stereo not drawn) [Example 15, 1-[5-Chloro-2-(trideuteriomethoxy)phenyl]-3-[1-[deuterio(1H-pyrrolo[2,3-b]pyridin-3-yl)methyl]indolin-4-yl]urea]
8 | < 70% | A | < 70% | [2H]C(c1c[nH]c2ncccc12)n1ccc2c(NC(=O)Nc3cc(Cl)ccc3OC)cccc21 (stereo not drawn) [Example 18, 1-(5-chloro-2-methoxyphenyl)-3-[1-[deuterio(1H-pyrrolo[2,3-b]pyridin-3-yl)methyl]indol-4-yl]urea]
9 | < 70% | A | ≥ 70% | [2H]C([2H])([2H])Oc1ccc(Cl)cc1NC(=O)Nc1cccc2c1CCN2C([2H])([2H])c1ccnc(N)c1 [Example 3, 1-[1-[(2-Amino-4-pyridyl)-dideuteriomethyl]indolin-4-yl]-3-[5-chloro-2-(trideuteriomethoxy)phenyl]urea]
10 | < 70% | A | < 70% | [2H]C(c1c[nH]c2ncccc12)N1CCc2c(NC(=O)Nc3cccc(C)c3)cccc21 (stereo not drawn) [Example 21, 1-[1-[Deuterio(1H-pyrrolo[2,3-b]pyridin-3-yl)methyl]indolin-4-yl]-3-(m-tolyl)urea]
11 | < 70% | B | ≥ 70% | [2H]C([2H])(c1ccnc2[nH]ccc12)n1ccc2c(NC(=O)Nc3cc(Cl)ccc3OC)cccc21 [Example 10, 1-(5-chloro-2-methoxyphenyl)-3-[1-[dideuterio(1H-pyrrolo[2,3-b]pyridin-4-yl)methyl]indol-4-yl]urea hydrochloride]
12 | < 70% | B | ≥ 70% | [2H]C(c1c[nH]c2ncccc12)N1CCc2c(NC(=O)Nc3cc(Cl)ccc3F)cccc21 (stereo not drawn) [Example 19, 1-(5-Chloro-2-fluorophenyl)-3-[1-[deuterio(1H-pyrrolo[2,3-b]pyridin-3-yl)methyl]indolin-4-yl]urea]
13 | < 70% | A | < 70% | [2H]C([2H])(c1ccnc2[nH]ccc12)N1CCc2c(NC(=O)Nc3cccc(C)c3)cccc21 [Example 13, 1-[1-[Dideuterio(1H-pyrrolo[2,3-b]pyridin-4-yl)methyl]indolin-4-yl]-3-(m-tolyl)urea hydrochloride]
14 | < 70% | A | < 70% | [2H]C([2H])(c1ccnc(N)c1)N1CCc2c(NC(=O)Nc3cc(Cl)ccc3OC)cccc21 [Example 1, 1-[1-[(2-Amino-4-pyridyl)-dideuteriomethyl]indolin-4-yl]-3-(5-chloro-2-methoxyphenyl)urea]
15 | < 70% | A | ≥ 70% | [2H]C(c1c[nH]c2ncccc12)n1ccc2c(NC(=O)Nc3cc(Cl)ccc3OC([2H])([2H])[2H])cccc21 (stereo not drawn) [Example 16, 1-[5-chloro-2-(trideuteriomethoxy)phenyl]-3-[1-[deuterio(1H-pyrrolo[2,3-b]pyridin-3-yl)methyl]indol-4-yl]urea]
16 | < 70% | A | < 70% | [2H]C([2H])([2H])Oc1ccc(Cl)cc1NC(=O)Nc1cccc2c1CCN2Cc1ccnc(N)c1 [Example 5, 1-[1-[(2-Amino-4-pyridyl)methyl]indolin-4-yl]-3-[5-chloro-2-(trideuteriomethoxy)phenyl]urea]
17 | < 70% | A | < 70% | Cl.[2H]C([2H])([2H])Oc1ccc(Cl)cc1NC(=O)Nc1cccc2c1ccn2C([2H])([2H])c1ccnc2[nH]ccc12 [Example 8, 1-[5-chloro-2-(trideuteriomethoxy)phenyl]-3-[1-[dideuterio(1H-pyrrolo[2,3-b]pyridin-4-yl)methyl]indol-4-yl]urea hydrochloride]

— patent US20130165475A1, “DEUTERIUM-ENRICHED HETEROCYCLIC COMPOUNDS AS KINASE INHIBITORS” (ASCEPION PHARMACEUTICALS, INC., priority 2010, published 2013)
